The data set can be described thus: gradient 5% acetonitrile 3 min, to 50% in 2 min, to 85% in 15 min, held 3 min, 100 µL/min. The following applies: column: Zorbax Extend-C18 2.1 x 50 mm; eluents: water / acetonitrile, 0.1% formic acid. In outline:
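Over 3 months, pure standards in mixtures of ~100 molecules were run by HPLC coupled to a quadrupole time-of-flight mass spectrometer in positive and negative ionization mode. The column was a Zorbax Extend-C18 (2.1 × 50 mm, 1.8 μm) at 100 μL/min, eluted with water and acetonitrile each holding 0.1% formic acid, with 40 μL dead and 900 μL dwell volumes. Retention time was determined from adduct peaks chosen by software and checked manually.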
The compound `COc1cc(NC(=O)Nc2nccn(-c3ccc(Cl)cc3)c2=O)cc(OC)c1` came in with an RP-LC retention time of 970 s.
For `Cc1cc(C(=O)NCC(C)C)c2cccc(C)c2n1`, the RP-LC retention time was 697 s.
On to `COCCCn1c(=O)c2ccccc2n(Cc2nc(-c3ccc(F)cc3)no2)c1=O`, for which the RP-LC retention time is 1010 s.
`CCCC(NC(=O)c1ccc(C)cc1C)C(=O)Nc1nc2ccccc2[nH]1` (stereo not given) came in with an RP-LC retention time of 735 s.
`CCc1cc(=O)n(CC(=O)NCc2ccc(C)cc2)c(N)n1` came in with an RP-LC retention time of 610 s.
The figure for `COc1ccc(NC(=O)N2CCCC(Cn3cnc4cccnc43)C2)cc1` (stereo not given) is 610 s.
For `CCN1CCCn2cc(S(=O)(=O)N3CCN(c4cccc(Cl)c4)CC3)cc2C1=O`, the RP-LC retention time is 894 s.
`Cc1cc(C)n(Cc2nc(-c3ccc(NC(=O)c4ccc(C#N)cc4)cc3)oc2C)n1` came in with an RP-LC retention time of 870 s.
The figure for `CCOc1ccc(CNC(=O)c2ccc3c(c2)NC(=O)C2CCCCN32)cc1OC` (stereo not given) is 747 s; for `O=C(NCC1CCN(C(=O)COc2ccccc2)CC1)c1ccc(F)c(F)c1` it is 758 s.
The figure for `O=C(NCCc1csc(-c2ccc(F)cc2)n1)c1ccc2c(c1)OCO2` is 908 s.
With `O=C(NCCc1ccc(N2CCCC2)cc1)c1ccccc1`, the RP-LC retention time was 704 s.
As to `O=C(Cc1cccs1)N1CCN(S(=O)(=O)C2CC2)CC1`, the RP-LC retention time amounted to 666 s.
The figure for `Cc1cc(C)cc(NC(=O)Cn2c(=O)n(-c3ccc(F)cc3)c(=O)c3c2cc(C)n3C)c1` is 879 s; for `Cc1nnc2c(NC(=O)c3cnccn3)cccn12` it is 600 s.
Consider `Cc1cc(C)cc(NC(=O)N2CCCC(C)(C(=O)NCc3ccccc3C)C2)c1` (stereo not given), for which the RP-LC retention time is 897 s.
Consider `CCN(CC)CCNC(=O)c1cc2n(n1)CC(C)(C(=O)NCc1ccc(F)cc1)N(C)C2=O` (stereo not given), for which the RP-LC retention time was found to be 589 s.
Compound `CCOc1ccc(CNC(=O)c2ccc3c(c2)N(C)C(=O)C2CCCCN32)cc1OC` (stereo not given) yielded an RP-LC retention time of 774 s.
Consider `CCCNC(=O)C1CCCN(c2ccc(SCC(=O)Nc3cc(Cl)ccc3C)nn2)C1` (stereo not given), for which the RP-LC retention time was found to be 720 s.
Then `Cn1nc2c(c1NC(=O)c1ccc([N+](=O)[O-])s1)CCC2`, with 698 s; and `COc1ccc(Cl)cc1NC(=O)Cn1nc2c(N3CCCCCC3)nccn2c1=O`, with 804 s.
`CCCCNC(=O)CCC(=O)Nc1ccc2nc(N3CCN(C)CC3)cc(C)c2c1` yielded an RP-LC retention time of 520 s.
In the case of `CCOC(=O)c1c(CN2CCOCC2)n(C)c2cc(Br)c(OC(C)=O)cc12`, the RP-LC retention time came to 704 s.
`Brc1cccc(-c2nnc(Cc3nc(-c4ccccc4)no3)o2)c1` came in with an RP-LC retention time of 1080 s.
For `COC(=O)c1nn(-c2ccc(C)cc2)c2c(=O)n(C)cnc12`, the RP-LC retention time turned out to be 707 s.
Then `COc1ccc(Cl)c2c(=O)c3c([nH]c12)CCN(CC(=O)Nc1cccc(Cl)c1)C3`, with 645 s; and `CC1Cc2ccccc2N1C(=O)c1ccc(=O)n(CCC(=O)N2CCN(c3ccccn3)CC2)n1` (stereo not given), with 629 s.
In the case of `CCCn1ccc2sc(C)c(C(=O)NCc3cccc(C)c3)c2c1=O`, the RP-LC retention time amounted to 948 s.
Regarding `CC1(C(=O)NCc2ccccc2)CCN(S(=O)(=O)c2ccc(C3CCCCC3)cc2)CC1`, the RP-LC retention time was 1230 s.
The figure for `CCOc1ccc(C(=O)N2CCC[C@@H]2C(=O)NCCc2csc(C)n2)cc1` is 846 s; for `CCN1C(=O)c2ccccc2Oc2ccc(C(=O)NC3CC3)cc21` it is 751 s.
As to `O=C(Cn1nc2c(cc1=O)CCCC2)Nc1cccc(N2CCCCS2(=O)=O)c1`, the RP-LC retention time worked out at 715 s.
`COc1cc(NC(=O)Nc2nccn(-c3ccc(C(C)C)cc3)c2=O)cc(OC)c1` gave an RP-LC retention time of 1110 s.
For the compound `COc1cc(NC(=O)Cn2nc3c4cc(F)ccc4ncn3c2=O)cc(OC)c1`, the RP-LC retention time was determined as 697 s.
`COc1cc(OC)c(NC(=O)CN2C(=O)NC(c3ccc(Cl)cc3)C3=C2COC3=O)cc1Cl` (stereo not given) showed an RP-LC retention time of 858 s.
`Cc1ccc(-n2nc(C)c3c(C)c(CCC(=O)NCCc4c[nH]c5ccccc45)c(C)nc32)cc1C` gave an RP-LC retention time of 1150 s.
As to `COc1ccccc1N1CCN(C(=O)C2CCN(c3nc(NC(C)=O)ns3)CC2)CC1`, the RP-LC retention time was 641 s.
On to `COC1CCC12CCN(C(=O)CC1CCN(C(C)=O)CC1)CC2` (stereo not given), for which the RP-LC retention time is 658 s.
The compound `COc1ccccc1NC(=O)Cn1nc2n(c1=O)CCCCC2` had an RP-LC retention time of 709 s.
The compound `O=C(CCCCCN1CCN(c2ccccc2-c2ccccc2)CC1)NC1CCCc2ccccc21` (stereo not given) returned an RP-LC retention time of 926 s.
Then `Cc1nc(-c2csc(S(=O)(=O)N3CCCC(C(=O)N4CCC5(CC4)OCCO5)C3)c2)no1` (stereo not given), with 798 s; and `CNC(=O)[C@@H]1CN(S(=O)(=O)C(C)C)C[C@H]1COC`, with 579 s; and `O=C(C1COc2ccccc2O1)N1CCCN(C2CCN(CC3CC3)C2=O)CC1` (stereo not given), with 560 s.
`COc1cc(OC)cc(-c2nc(C3CC(=O)N(c4ccc(F)cc4)C3)no2)c1` (stereo not given): the RP-LC retention time was 977 s.
In turn, `COCc1nc(CCNC(=O)C2CCC2)no1` yielded an RP-LC retention time of 609 s.
`COC[C@@H]1CN(Cc2c(C)n[nH]c2C)C[C@H]1c1ccncc1` came in with an RP-LC retention time of 559 s.
Compound `CCn1c(=O)c2c(cc(C)n2C)n(CC(=O)Nc2ccc(C)cc2Cl)c1=O` returned an RP-LC retention time of 871 s.
Regarding `CC1CCCCN1CCNC(=O)Cn1c2ccccc2c2cnn(C)c(=O)c21` (stereo not given), the RP-LC retention time worked out at 620 s.
The figure for `CN(C)c1cccc(C(=O)N2CCCN(c3cc(-c4ccc5c(c4)OCO5)[nH]n3)CC2)c1` is 680 s; for `COC(=O)C(=Cc1ccccc1[N+](=O)[O-])C(=O)OC` it is 883 s; for `CCCCC(=O)Nc1nc(-c2ccc3c(c2)N(C)C(=O)CO3)c(C)s1` it is 925 s.
`O=S(=O)(NCc1cccnc1-c1ccc(F)cc1)c1ccc(Br)cc1` came in with an RP-LC retention time of 801 s.
As for `Cc1ccc(C)c(C(=O)N2CCCC2c2nc(-c3cccc(Cl)c3)no2)c1` (stereo not given), the RP-LC retention time was 1190 s.
`O=C(Nc1ccc(F)cc1)c1nnc(C(=O)N2CCC(C(=O)NCc3ccccn3)CC2)s1` yielded an RP-LC retention time of 909 s.
In turn, `CC(=O)N1c2ccc(S(=O)(=O)NCc3ccc4c(c3)CCN4C(=O)CC(C)C)cc2CC1C` (stereo not given) registered an RP-LC retention time of 874 s.
Take `COCCn1cc2c3c(cccc31)CN(C(=O)NCc1ccc(F)cc1)CC2`: the RP-LC retention time was 842 s.
Then `Clc1ccc(-c2nc(-c3cccc(-c4ccn[nH]4)c3)no2)cc1`, with 1090 s.
Take `CCCNC(=O)CC1CCN(C(=O)c2c(C)[nH]c(C(=O)OCC)c2C)CC1`: the RP-LC retention time was 653 s.
Then `COc1cccc(-c2nc3nc(C)c(CCC(=O)NC4CCCCC4)c(C)n3n2)c1`, with 827 s.
`COc1ccc(S(=O)(=O)N2CCC(c3noc(-c4ccccc4C)n3)CC2)cc1OC` gave an RP-LC retention time of 1090 s.
The compound `O=C(CSc1nnc(-c2cccnc2)o1)c1cccc([N+](=O)[O-])c1` registered an RP-LC retention time of 724 s.
`COC(=O)c1ccsc1NC(=O)Cc1ccc2c(c1)OCO2` registered an RP-LC retention time of 888 s.
On to `CCc1ccc(N2C(=O)CN(S(C)(=O)=O)CC2(C)C(=O)NCc2ccccc2)cc1` (stereo not given), for which the RP-LC retention time was determined as 809 s.
The figure for `COc1cccc(C(=O)NC2CCN(c3cc(-c4cccs4)[nH]n3)C2)c1OC` (stereo not given) is 722 s.
In turn, `COc1ccc(-c2cc3c4nnc(CCC(=O)NCc5ccco5)n4ccn3n2)cc1` yielded an RP-LC retention time of 665 s.
`CCOC(=O)CC(=O)Nc1nc(C2COc3ccccc3O2)cs1` (stereo not given) showed an RP-LC retention time of 921 s.
The compound `COc1ccc(N2C(=O)C3N=NN(c4ccc(F)cc4)C3C2=O)cc1` (stereo not given) came in with an RP-LC retention time of 923 s.
Consider `CCC(C)C(NC(=O)c1ccc(C(F)(F)F)cc1)C(=O)Nc1nc2ccccc2[nH]1` (stereo not given), for which the RP-LC retention time amounted to 847 s.
Regarding `CCOCc1nc(C2CCCN2C(=O)c2ccsc2)no1` (stereo not given), the RP-LC retention time amounted to 724 s.
`CCc1nnc2cc(N3CCN(C(=O)c4ccc(C(C)C)cc4)CC3)cnn12` gave an RP-LC retention time of 731 s.
On to `O=C(NCc1ccc2c(c1)OCO2)c1ccc2c(cnn2CC(=O)N2CCCCCC2)c1`, for which the RP-LC retention time was 766 s.
Regarding `COc1ccc(C(=O)N(C)CC2(C)CCOCC2)cc1OC`, the RP-LC retention time stood at 677 s.
The compound `O=S(=O)(c1cnc[nH]1)N1CCC(c2nc(CCOc3ccc(F)cc3)no2)C1` (stereo not given) returned an RP-LC retention time of 762 s.
The compound `CCc1cccc(NS(=O)(=O)c2ccc(-c3c(C)noc3C)cc2)c1` displayed an RP-LC retention time of 985 s.
Then `CCC(CC)C(=O)N1CCCC(c2nc(CNC(=O)C3CCC3)cs2)C1` (stereo not given), with 777 s; and `COc1ccccc1CCNC(=O)C1CN(C(=O)c2c[nH]c3ccccc23)C1`, with 673 s; and `Cc1cnc(C2CC2)n1C1CCN(S(=O)(=O)c2ccc(C#N)cc2)C1` (stereo not given), with 647 s.
`Cc1cccc(-c2ocnc2C(=O)NC2CCN(C)CC2)c1` returned an RP-LC retention time of 618 s.
`COc1ccc(-c2cc(C(=O)N(C)C)c(C)n2C)cc1`: the RP-LC retention time was 808 s.
On to `Cc1ccc(N2CCCS2(=O)=O)cc1NC(=O)C1CCCC1`, for which the RP-LC retention time came to 696 s.

The record behind these values is the METLIN SMRT retention time set (Domingo-Almenara et al. 2019).
